IC50 data for six compounds are collected here from US11530206B2, “Phenylaminopyrimidine amide autophagy inhibitors and methods of use thereof” (Deciphera Pharmaceuticals, LLC, priority 2019, dated 2022).

Experiment [1] deals with ULK kinase. Nature of the experiment: pATG13 levels of mutant BRAF A375 cells after treatment with ULK inhibitors in combination with trametinib (ELISA). The note with it: A375 malignant melanoma cells (mutant BRAF), 250 nM trametinib, overnight, pS318-ATG13. In kind it is cell-based, human. How it is done:
(§1) A375 human malignant melanoma cancer cells (20000 cells/well) were added to a 96-well tissue-culture treated plate in 100 μL of pre-warmed DMEM medium supplemented with 10% characterized fetal bovine serum (Invitrogen, Carlsbad, Calif.), 100 units/mL penicillin G, and 100 μg/mL streptomycin and allowed to grow overnight at 37° C., 5% CO2, and 95% humidity. The following day, 100 μL of media containing trametinib or DMSO as a control was added to wells. […] A dose response of a test compound (0.5 μL per well) was added. DMSO (0.5 μL) was added to control wells. The plate was briefly shaken to mix wells and then incubated at 37° C. overnight. The next day, the media was aspirated and cells were washed with Dulbecco's Phosphate Buffered Saline (Gibco). Cells were lysed using MPER lysis buffer (Pierce, Rockford, Ill.) containing Halt Phosphatase and Protease Inhibitors (Pierce, Rockford, Ill.) and Phosphatase inhibitor cocktail 2 (Sigma, St. Louis, Mo.) at 4° C. for 10 minutes with shaking.
(§2) Plate wells were washed with ELISA wash buffer. Cell lysate was added to wells and incubated at room temperature for 2 hours. Plate wells were washed with ELISA wash buffer. […] Plate wells were washed with ELISA wash buffer. […] Plate wells were washed with ELISA wash buffer. […] The reaction was stopped with 2N Sulfuric Acid. The plate was analyzed at on a plate reader measuring absorbance at 450 nm and 540 nm (background). Signal was calculated by first subtracting the background absorbance at 540 nm from the absorbance at 450 nm for each well. Next, the background corrected absorbance at 450 nm from blank wells was subtracted from test wells. Data was compared to control wells to determine % ATG13 phosphorylation. GraphPad Prism was used to calculate IC50 values.

Experiment [2] has as its system ULK kinase. Nature of the experiment: pATG13 levels of mutant KRas MiaPaCa-2 cells after treatment with ULK inhibitors in combination with trametinib (ELISA). In kind it is cell-based, human. The conditions noted are these: MiaPaCa-2 pancreatic cancer cells, 250 nM trametinib, overnight, pS318-ATG13. In a few lines: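 MiaPaCa-2 cells in DMEM with 10% FBS and 2.5% horse serum were pretreated with trametinib or DMSO, then given a test-compound dose response overnight at 37° C. Lysates were assayed for phospho-ATG13 by ELISA (A450 minus A540 background, blank-corrected). % phosphorylation was calculated relative to controls and fitted to IC50.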

In experiment [3] the test system is ULK kinase. Description: pATG13 levels of mutant KRas A549 cells after treatment with ULK inhibitors in combination with trametinib (ELISA). In kind it is cell-based, human. The conditions noted are these: A549 (KRAS mutant) lung cancer cells, 250 nM trametinib, overnight, pS318-ATG13. In a few lines:
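Lysates with phosphatase/protease inhibitors assayed by pATG13 ELISA, A450 minus A540 background and blank-corrected. % ATG13 phosphorylation versus DMSO controls fitted to IC50.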

Experiment [4] addresses T1, ULK1 kinase (Homo sapiens, UniProt O75385).
T1 construct: purchased Eurofins 14-959
T1 sequence (O75385 with tags, fused parts or gaps): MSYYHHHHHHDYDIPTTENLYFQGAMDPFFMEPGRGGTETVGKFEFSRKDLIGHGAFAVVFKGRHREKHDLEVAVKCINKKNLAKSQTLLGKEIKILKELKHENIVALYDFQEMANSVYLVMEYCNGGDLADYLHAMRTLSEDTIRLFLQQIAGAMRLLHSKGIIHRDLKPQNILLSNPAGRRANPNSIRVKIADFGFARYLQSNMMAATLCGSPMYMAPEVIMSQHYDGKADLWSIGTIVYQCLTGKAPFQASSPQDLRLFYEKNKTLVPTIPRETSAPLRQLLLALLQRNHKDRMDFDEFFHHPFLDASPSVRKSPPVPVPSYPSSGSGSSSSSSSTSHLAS
Description: Biochemical assay for ULK1.2 (coupled pyruvate kinase/lactate dehydrogenase assay). The conditions noted are these: 19 nM ULK1 (residues 1-314, His tag), myelin basic protein, 1 mM ATP. How it is done: Biochemical Assay for ULK1.2 (SEQ. ID NO: 1)
Inhibition of ULK1 was measured by adding serial diluted test compound (final assay concentration of 1% DMSO). A decrease in absorption at 340 nm was monitored continuously for 6 hours at 30° C. on a multi-mode microplate reader (BioTek). The reaction rate was calculated using the 2-3 h time frame. The reaction rate at each concentration of compound was converted to percent inhibition using controls (i.e. reaction with no test compound and reaction with a known inhibitor) and IC50 values were calculated by fitting a four-parameter sigmoidal curve to the data using Prism (GraphPad software).

The next experiment addresses T2, ULK2 kinase (Homo sapiens, UniProt Q8IYT8).
T2 construct: purchased Eurofins 14-772
Nature of the experiment: Biochemical assay for ULK2 (coupled pyruvate kinase/lactate dehydrogenase assay). The note with it: 9.7 nM ULK2 (residues 1-306, GST and His tag), myelin basic protein, 1 mM ATP; read-out: ULK2.2. As to the method:
Example 132. Biochemical Assay for ULK2 (SEQ. ID NO: 3)
Activity of ULK2 kinase was determined spectroscopically using a coupled pyruvate kinase/lactate dehydrogenase assay that continuously monitors the ATP hydrolysis-dependent oxidation of NADH (e.g., Schindler et al. Science (2000) 289: 1938-1942). Assays were conducted in 384-well plates (100 uL final volume) using 9.7 nM ULK2 (Eurofins CAT #14-772), 0.25 mg/mL myelin basic protein, 1.5 units pyruvate kinase, 2.1 units lactate dehydrogenase, 1 mM phosphoenol pyruvate, 0.28 mM NADH and 1 mM ATP in assay buffer (100 mM Tris, pH 7.5, 15 mM MgCl2, 0.5 mM DTT, 0.1% octyl-glucoside, 0.002% (w/v) BSA, and 0.002% Triton X-100). Inhibition of ULK2 was measured by adding serial diluted test compound (final assay concentration of 1% DMSO). A decrease in absorption at 340 nm was monitored continuously for 6 hours at 30° C. on a multi-mode microplate reader (BioTek). The reaction rate was calculated using the 2-3 h time frame. The reaction rate at each concentration of compound was converted to percent inhibition using controls (i.e. reaction with no test compound and reaction with a known inhibitor) and IC50 values were calculated by fitting a four-parameter sigmoidal curve to the data using Prism (GraphPad software).

Experiment [5] has as its system ULK kinase. Nature of the experiment: pATG13 levels of mutant KRas HCT-116 cells after treatment with ULK inhibitors in combination with trametinib (ELISA). The conditions noted are these: HCT-116 colon cancer cells, 250 nM trametinib, overnight, pS318-ATG13. The experiment is classed as cell-based, human. How it is done: The following day, 10 μL of media containing trametinib or DMSO as a control was added to wells. […] A dose response of a test compound (0.6 μL per well) was added. DMSO (0.6 μL) was added to control wells. The plate was briefly shaken to mix wells and then incubated at 37° C. overnight. The next day, the media was aspirated and cells were washed with Dulbecco's Phosphate Buffered Saline (Gibco). Cells were lysed using MPER lysis buffer (Pierce, Rockford, Ill.) containing Halt Phosphatase and Protease Inhibitors (Pierce, Rockford, Ill.) and Phosphatase inhibitor cocktail 2 (Sigma, St. Louis, Mo.) at 4° C. for 10 minutes with shaking.
as §2

In experiment [6] the target is T3, ULK1 kinase (Homo sapiens, UniProt O75385, E37A/K38A).
T3 construct: purchased Beryllium
T3 sequence (O75385 1-283 E37A/K38A): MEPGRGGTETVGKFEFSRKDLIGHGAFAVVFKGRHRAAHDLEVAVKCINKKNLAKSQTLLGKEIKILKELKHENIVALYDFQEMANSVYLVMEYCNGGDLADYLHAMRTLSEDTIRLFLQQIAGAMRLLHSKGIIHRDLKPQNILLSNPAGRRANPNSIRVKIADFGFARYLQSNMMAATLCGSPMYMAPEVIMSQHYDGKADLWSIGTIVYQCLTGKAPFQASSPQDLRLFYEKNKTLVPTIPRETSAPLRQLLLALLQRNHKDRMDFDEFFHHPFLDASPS
Description: Biochemical assay for ULK1.3 (coupled pyruvate kinase/lactate dehydrogenase assay, peptide substrate). The conditions noted are these: 0.1 nM ULK1 (residues 1-283), 1 mM ATP. In a few lines: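 ULK1.3 activity was followed by continuous decrease in 340 nm absorbance over 6 h at 30 °C with 1% DMSO final. Rates were taken from the 2–3 h window and converted to percent inhibition against no-compound and known-inhibitor controls. IC50 values came from curve fitting.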

The test system of experiment [7] is ULK kinase. Nature of the experiment: pATG13 levels of mutant HRas T24 cells after treatment with ULK inhibitors in combination with trametinib (ELISA). The experiment is classed as cell-based, human. The conditions noted are these: T24 urinary bladder cancer cells (mutant HRas), 250 nM trametinib, overnight, pS318-ATG13. How it is done:
as §1, with “T24” for “A375”, “urinary bladder” for “malignant melanoma”, “(25000” for “(20000”
as §2

The target of a further experiment is T4, LRRK2 kinase (Homo sapiens, UniProt Q5S007).
T4 construct: purchased Thermo Fisher
Nature of the experiment: Biochemical assay for LRRK2 (coupled pyruvate kinase/lactate dehydrogenase assay). The conditions noted are these: 26.4 nM LRRK2 (residues 970-2528), peptide substrate, 1 mM ATP. The method, boiled down: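 Recombinant LRRK2 (26.4 nM) with 0.1 mM peptide substrate and 1 mM ATP in Tris pH 7.5/MgCl2 buffer; ADP production coupled via PK/LDH to NADH oxidation, A340 read continuously 6 h at 30 °C. Rates from 2–3 h window converted to % inhibition versus no-compound and reference-inhibitor controls; IC50 fitted.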

Structures are written as SMILES.

T2 sequence (Q8IYT8 with tags, fused parts or gaps): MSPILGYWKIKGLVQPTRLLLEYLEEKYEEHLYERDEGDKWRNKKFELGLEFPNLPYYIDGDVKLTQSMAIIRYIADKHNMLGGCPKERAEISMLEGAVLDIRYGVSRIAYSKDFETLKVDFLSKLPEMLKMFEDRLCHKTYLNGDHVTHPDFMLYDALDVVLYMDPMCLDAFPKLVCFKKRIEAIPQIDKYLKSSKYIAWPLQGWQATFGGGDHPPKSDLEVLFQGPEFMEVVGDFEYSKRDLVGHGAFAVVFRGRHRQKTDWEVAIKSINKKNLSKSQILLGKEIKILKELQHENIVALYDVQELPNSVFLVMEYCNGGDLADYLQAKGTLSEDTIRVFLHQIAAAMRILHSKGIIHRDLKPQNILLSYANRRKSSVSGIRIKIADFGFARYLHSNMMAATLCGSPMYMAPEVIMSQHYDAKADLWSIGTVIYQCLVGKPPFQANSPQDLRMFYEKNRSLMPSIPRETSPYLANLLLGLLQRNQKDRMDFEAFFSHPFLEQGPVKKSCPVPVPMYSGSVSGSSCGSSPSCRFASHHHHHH
T4 sequence (Q5S007 with tags, fused parts or gaps): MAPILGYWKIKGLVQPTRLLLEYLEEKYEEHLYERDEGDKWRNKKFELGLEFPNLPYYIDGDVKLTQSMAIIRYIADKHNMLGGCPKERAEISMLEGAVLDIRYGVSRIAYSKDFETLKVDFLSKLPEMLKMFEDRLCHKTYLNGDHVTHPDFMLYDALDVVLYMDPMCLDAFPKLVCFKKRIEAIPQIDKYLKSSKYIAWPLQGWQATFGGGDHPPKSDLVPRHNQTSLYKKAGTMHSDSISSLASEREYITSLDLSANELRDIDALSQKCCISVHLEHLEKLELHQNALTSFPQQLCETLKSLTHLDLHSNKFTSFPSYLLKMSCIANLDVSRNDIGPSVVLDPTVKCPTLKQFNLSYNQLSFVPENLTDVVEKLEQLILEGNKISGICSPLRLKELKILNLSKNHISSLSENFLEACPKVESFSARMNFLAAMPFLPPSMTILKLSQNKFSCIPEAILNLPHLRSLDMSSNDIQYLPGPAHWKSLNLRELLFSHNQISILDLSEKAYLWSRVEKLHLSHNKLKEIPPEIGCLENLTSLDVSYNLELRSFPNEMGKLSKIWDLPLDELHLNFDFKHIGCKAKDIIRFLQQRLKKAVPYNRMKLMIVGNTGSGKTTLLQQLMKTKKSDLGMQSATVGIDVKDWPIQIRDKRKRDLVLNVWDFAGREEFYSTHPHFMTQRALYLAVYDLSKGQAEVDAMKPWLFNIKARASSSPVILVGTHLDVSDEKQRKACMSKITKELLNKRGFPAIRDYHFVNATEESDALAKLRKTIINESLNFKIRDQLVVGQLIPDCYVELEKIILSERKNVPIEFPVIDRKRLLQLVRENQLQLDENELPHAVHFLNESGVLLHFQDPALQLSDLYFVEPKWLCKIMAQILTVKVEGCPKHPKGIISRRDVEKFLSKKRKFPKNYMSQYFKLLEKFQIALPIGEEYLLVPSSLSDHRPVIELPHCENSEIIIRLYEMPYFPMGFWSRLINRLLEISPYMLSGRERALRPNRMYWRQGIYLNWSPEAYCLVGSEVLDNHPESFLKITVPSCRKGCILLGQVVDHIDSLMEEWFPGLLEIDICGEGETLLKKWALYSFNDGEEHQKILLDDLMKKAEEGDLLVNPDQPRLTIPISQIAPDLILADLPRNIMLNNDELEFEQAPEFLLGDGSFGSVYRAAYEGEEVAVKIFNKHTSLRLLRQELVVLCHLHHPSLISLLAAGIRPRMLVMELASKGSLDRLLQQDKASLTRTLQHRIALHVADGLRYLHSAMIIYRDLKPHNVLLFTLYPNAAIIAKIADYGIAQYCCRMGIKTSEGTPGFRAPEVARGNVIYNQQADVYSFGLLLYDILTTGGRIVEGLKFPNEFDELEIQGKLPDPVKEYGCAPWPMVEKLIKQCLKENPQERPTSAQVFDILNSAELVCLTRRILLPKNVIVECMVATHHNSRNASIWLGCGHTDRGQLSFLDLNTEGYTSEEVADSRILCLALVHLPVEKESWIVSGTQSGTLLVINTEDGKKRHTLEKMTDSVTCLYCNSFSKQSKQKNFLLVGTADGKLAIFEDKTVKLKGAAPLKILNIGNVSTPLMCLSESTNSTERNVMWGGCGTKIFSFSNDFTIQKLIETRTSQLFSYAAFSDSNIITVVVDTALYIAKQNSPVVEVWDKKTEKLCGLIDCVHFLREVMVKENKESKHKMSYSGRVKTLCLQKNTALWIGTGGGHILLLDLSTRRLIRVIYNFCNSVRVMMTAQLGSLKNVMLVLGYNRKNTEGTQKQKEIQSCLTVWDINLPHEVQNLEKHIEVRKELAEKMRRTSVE

Regarding `CCc1cc(N2CCN(C)CC2)ccc1Nc1ncc(C(F)(F)F)c(NCCCN2CCCCC2=O)n1` [Example 11], the IC50 with ULK kinase [1] is 10 to 100 nM; in the experiment with ULK kinase [2], 10 to 100 nM; in the experiment on ULK kinase [3], 100 to 300 nM; against ULK1 kinase [4], 1 to 25 nM; at ULK2 kinase it was 1 to 25 nM; with ULK kinase [5], 10 to 100 nM.
Turning to `CCc1cc(N2CCN(C)CC2)ccc1Nc1ncc(Br)c(NCCCN2CCCCC2=O)n1` [Example 23, 1-(3-((5-bromo-2-((2-ethyl-4-(4-methylpiperazin-1-yl)phenyl)amino)pyrimidin-4-yl)amino)propyl)piperidin-2-one], the IC50 with ULK kinase [1] fell in the range of 10 to 100 nM; in the experiment with ULK kinase [2], 10 to 100 nM; with ULK kinase [3], 10 to 100 nM; against ULK1 kinase [4], 25 to 100 nM; on ULK2 kinase, 100 to 500 nM; in the experiment with ULK kinase [5] it was 10 to 100 nM.
In the case of `O=C1CCCCN1CCCNc1nc(Nc2ccc(N3CCNCC3)cc2C2CC2)ncc1C(F)(F)F` [Example 34, 1-(3-((2-((2-cyclopropyl-4-(piperazin-1-yl)phenyl)amino)-5-(trifluoromethyl)pyrimidin-4-yl)amino)propyl)piperidin-2-one], the IC50 in the experiment with ULK kinase [2] was 10 to 100 nM; in the experiment with ULK kinase [3], 10 to 100 nM; on ULK1 kinase [6] it was 1 to 25 nM; in the experiment on ULK kinase [7] it was 100 to 300 nM; in the experiment on ULK kinase [5], 10 to 100 nM.
On to `CN1CCN(c2ccc(Nc3ncc(C(F)(F)F)c(NCCCN4CCOCC4=O)n3)c(C3CC3)c2)CC1` [Example 47], for which the IC50 in the experiment on ULK kinase [1] is 300 to 600 nM; in the experiment on ULK kinase [2], 300 to 600 nM; with ULK kinase [3], 100 to 300 nM; against ULK1 kinase [6] it was 25 to 100 nM; against LRRK2 kinase it was 100 to 300 nM; with ULK kinase [5] it was 100 to 300 nM.
Turning to `CCN1CCN(c2ccc(Nc3ncc(C(F)(F)F)c(NCCCN4CCCOCC4=O)n3)c(C(C)C)c2)CC1` [Example 60], the IC50 in the experiment with ULK kinase [1] lay within 300 to 600 nM; in the experiment on ULK kinase [2], 100 to 300 nM; with ULK kinase [3], 100 to 300 nM; against ULK1 kinase [4], 1 to 25 nM; in the experiment on ULK kinase [5] it was 10 to 100 nM.
With `CCN1CCN(c2ccc(Nc3ncc(C(F)(F)F)c(NCCCN4CCOCCC4=O)n3)c(C(C)C)c2)CC1` [Example 73], the IC50 in the experiment with ULK kinase [1] lay in the range of 10 to 100 nM; in the experiment on ULK kinase [2] it was 100 to 300 nM; with ULK kinase [3], 100 to 300 nM; against ULK1 kinase [4] it was 1 to 25 nM; at ULK2 kinase, 100 to 500 nM; in the experiment with ULK kinase [5] it was 10 to 100 nM.
